According to patent US20240059740A1, “CYCLIC PEPTIDES AND USES THEREOF” (PRE[…] INC., priority 2020, published 2024):
Residues, ends and D or L forms follow the SMILES beside them.

Key:
Type in all cases: cell-based, human
U87 cells [1] = experiment: MTT assay for cytotoxicity, U87; conditions: 48 hours, % viability of control
Text: (§1) The MTT (3-[4.5-dimethylthiazol-2-yl]-2,5═diphenyl tetrazolium bromide) assay is based on a process undertaken by living cells, involving the conversion of MTT into formazan crystals. This assay is used routinely to measure the in vitro cytotoxic effects of drugs on cell lines or primary patient cells (Van Meerloo et al., 2011). The MTT assay measures mitochondrial activity, so in some instances where the peptide activates mitochondrial response, the results appear to increase the number of cells present i.e. >100% cell viability.
(§2) The aim of this experiment was to identify peptide concentrations that are active on living cells and cell viability was assessed.
(§3) The glioblastoma multiforme (GBM) cell lines used were U87 and U251 cells and patient derived cells grown as oncospheres (081024 cells). Human adherent GBM cell lines U87 and U251 were cultured in RPMI medium (Life Technologies Melbourne Australia) supplemented with 5% v/v FBS, 100 U/mL penicillin and 100 μg/mL streptomycin. 081024 cells were cultrured in NeuroCult™ NS-A Proliferation medium with 0.2% (v/v) heparin, 20 ng/mL EGF and 10 ng/mL FGF.
(§4) 8×10^3 U87 and 7×10^3 U251 cells per well were seeded in 96 well plates in 200 μL serum-containing RPMI medium and incubated at 37° C. with 5% CO2 for 24 hours. After one wash with serum-free medium, 100 μL serum-free medium with different concentration of peptide SEQ ID NO:1 was added to each well. After 48 hours incubation, 10 μL of 0.5 mg/mL MTT was added and incubated for 2 hours at 37° C. Formazan crystals were dissolved by 200 μL/well dimethyl sulfoxide (DMSO) and shaking for 15 minutes. The UV absorbance was read with an iMark™ microplate absorbance reader at 595 nm (Bio-Rad Laboratories). Background absorbance was subtracted and results expressed as the % viability of control (untreated cells).

U87 cells [2] = experiment: BME cell invasion assay, U87; conditions: 24 h
Description: To assess whether the ability of SEQ ID NO.1 to inhibit MMP-2 activity and, to a lesser extent, reduce the production of matrix proteinases and downregulate the expression of EMT markers, was of functional consequence in reducing the invasiveness of the GBM cells, the ability of the peptide was tested at the concentrations of 1, 10 and 100 μM (none of which are toxic to cells) to inhibit invasion of the GBM cells through a basement membrane. This assay, described in more detail below, is an in vitro surrogate for measurement of the in vivo invasion by tumour cells of their environment.
The cell invasion assay employs a simplified Boyden chamber-like design that consists of two chambers separated by a filter (an 8 μm polycarbonate (PC) membrane) coated with basement membrane or different extracellular matrix components. The cell suspension is placed in the top chamber and incubated in the presence of test media containing specific chemo-attractants in the bottom chamber. Cells migrate from the top chamber to the bottom of the filter by degrading the coating over the filter pores. Detection of cell invasion is quantified using Calcein AM. Cell dissociation/Calcein AM solution is placed in the bottom chamber to dissociate the migrating cells from the filter. Calcein AM is internalized by the cells, and intracellular-esterases cleave the aceto-methylester (AM) moiety. Free Calcein fluoresces brightly and is used to quantitate the number of cells that have invaded or migrated by comparison with a standard curve (In Vitro Technologies Pty Ltd, (https://lifescience.invitro.com.au/brands/r-and-d-systems/).
The filter was coated with PathClear® growth factor reduced BME. The selected peptides were applied to the cells in both upper and lower wells to make sure the concentration of peptides were the same and the chemoattractant was serum at a concentration of 2% (for adherent U87 & U251 cells) or growth factor mix required in the medium (for non- adherent, 081024 oncospheres).
Cell invasion was determined using CultureCoat® 96 Well Medium BME Cell Invasion assay. Briefly, the cells were pre-starved 24 h before harvest. Then seeding 25,000 per well of cell in the upper chamber with serum free medium together different concentration of peptide. The bottom chamber also added different concentration of peptides with 2% (V/V) serum for GBM adherent cells or growth factor mix for neurosphere cells as chemoattractant. After 24 h incubation, the invading cells were measured by Calcein AM and calculated based on standard curve.
The results are shown in Table 12, the results are expressed as % inhibition.

MMP-9 mRNA = experiment: Real time RT-PCR, MMP-9 mRNA expression
Text: The real-time reverse transcription polymerase chain reaction (RT-PCR) uses fluorescent reporter molecules to monitor the production of amplification products during each cycle of the PCR reaction. This combines the nucleic acid amplification and detection steps into one homogeneous assay and use of appropriate chemistries and data analysis eliminates the need for Southern blotting or DNA sequencing for amplicon identification. Its simplicity, specificity and sensitivity, together with its potential for high throughput and the ongoing introduction of new chemistries, more reliable instrumentation and improved protocols, has made real-time RT-PCR the benchmark technology for the detection and/or comparison of RNA levels.’
In order to detect and quantify the expression of specific genes at mRNA level, real-time reverse transcriptase polymerase chain reaction (Real time RT-PCR) was performed. Total RNA of samples was isolated and purified using the PureLink® RNA Mini Kit (Life technologies). The concentration of total RNA was detected by NanoDrop 2000 Spectrophotometer (Thermo Scientific). The total RNA (2000 ng) was reverse transcribed using the High-Capacity cDNA Reverse Transcription Kit (Applied Biosystems™).
The primers of target genes were TaqMan™ Gene Expression Assay for human PLAU (Hs01547054_m1), MMP-2 (Hs01548727_m1), MMP-9 (Hs00957562_m1), Snail-1 (Hs00195591_m1), Snail-2 (Hs00161904_m1), N-cadherin (Hs00983056_m1) and Twist (Hs01675818_s1). Relative quantification was done by reference to 18S ribosomal RNA (18S rRNA) and analysed using the comparative critical threshold (Ct) method
The mRNA expression of MMPs was measured using qRT-PCR. This was tested three independent times; the results are shown in Tables 9, 10 and 11 for U251, U87 cells and O81024 cells respectively. Results are reported as percent of the control cells (no treatment). Both MMP-2 and uPA were decreased in U251 by SEQ ID NO.1.

081024 cells = experiment: MTT assay for cytotoxicity, 081024 oncospheres; conditions: % viability of control
Text: as §1, §2, §3, §4

Structure (SMILES): CC(C)C[C@@H]1NC(=O)[C@H](C)NC(=O)[C@@H](NC(=O)[C@@H]2CCCN2C(=O)[C@@H](N)CC(C)C)CSSC(C)(C)CNC(=O)CC[C@@H](C(=O)N[C@@H](CCCNC(=N)N)C(N)=O)NC(=O)[C@H](CC(=O)O)NC(=O)[C@H](CC(N)=O)NC1=O [SEQ ID NO: 1, Leu-Pro-c(SSA*-Ala-Leu-Asn-Asp-Glu)-Arg-NH2] (HELM PEPTIDE1{L.P.C.A.L.N.D.E.R.[am]}|CHEM1{[CC(C)(CN[*:2])S[*:1]]}$PEPTIDE1,CHEM1,3:R3-1:R1|PEPTIDE1,CHEM1,8:R3-1:R2$$$V2.0; N-terminus assumed)
- Cell viability (U87 cells [1]; 1 μM): 96.34%
- Cell viability (U87 cells [1]; 5 μM): 102.4%
- Cell viability (U87 cells [1]; 10 μM): 100.1%
- Cell viability (U87 cells [1]; 50 μM): 98.71%
- Cell viability (U87 cells [1]; 100 μM): 102.8%
- Cell viability (U87 cells [1]; 500 μM): 96.94%
- Cell viability (U87 cells [1]; 1 mM): 83.41%
- Invasion Inhibition Index (%) (U87 cells [2]; 1 μM, listed as SEQ ID NO. 1): 7.6%
- Invasion Inhibition Index (%) (U87 cells [2]; 1 μM, listed as SEQ ID NO.1): lower inhibition index compared to Chlorotoxin
- Invasion Inhibition Index (%) (U87 cells [2]; 10 μM): 15.5%
- Invasion Inhibition Index (%) (U87 cells [2]; 100 μM): 24.3%
- mRNA expression, MMP-9 (MMP-9 mRNA; 081024 cells, baseline expression level = 1): 0.63
- mRNA expression, MMP-9 (MMP-9 mRNA; U87 cells, baseline expression level = 1): 0.66
- mRNA expression, MMP-9 (MMP-9 mRNA; U251 cells, relative to control (no treatment)): 0.73
- Cell viability (081024 cells; 1 μM): 104.2%
- Cell viability (081024 cells; 5 μM): 106.8%
- Cell viability (081024 cells; 10 μM): 106.7%
- Cell viability (081024 cells; 50 μM): 106.5%
- Cell viability (081024 cells; 100 μM): 106.9%
- Cell viability (081024 cells; 500 μM): 99.68%
- Cell viability (081024 cells; 1 mM): 89.58%
